SMILES strings stand for the structures.

Chain of plasma kallikrein (PK) (P03952 391-638 limits assumed, species assumed): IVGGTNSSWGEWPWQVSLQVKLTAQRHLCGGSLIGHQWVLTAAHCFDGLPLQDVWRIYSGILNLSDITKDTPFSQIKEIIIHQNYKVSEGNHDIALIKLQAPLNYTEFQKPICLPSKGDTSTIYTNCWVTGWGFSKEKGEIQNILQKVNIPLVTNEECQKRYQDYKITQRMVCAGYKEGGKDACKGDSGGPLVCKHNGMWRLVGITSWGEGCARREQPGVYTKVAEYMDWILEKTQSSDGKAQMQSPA
Chain of plasma kallikrein (PK) (P03952 20-390 partner limits assumed, species assumed): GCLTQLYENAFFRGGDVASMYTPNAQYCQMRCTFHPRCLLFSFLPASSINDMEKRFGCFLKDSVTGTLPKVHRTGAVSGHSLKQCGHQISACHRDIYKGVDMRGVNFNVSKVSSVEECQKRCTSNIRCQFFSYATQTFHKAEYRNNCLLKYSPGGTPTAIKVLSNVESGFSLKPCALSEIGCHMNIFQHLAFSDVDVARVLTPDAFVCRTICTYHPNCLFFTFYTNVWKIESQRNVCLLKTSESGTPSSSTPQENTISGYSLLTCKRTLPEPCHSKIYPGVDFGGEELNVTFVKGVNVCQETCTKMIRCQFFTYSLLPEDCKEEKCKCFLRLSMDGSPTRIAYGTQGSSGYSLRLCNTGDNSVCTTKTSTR
T1 sequence (P00748 373-615 limits assumed, other chains not shown): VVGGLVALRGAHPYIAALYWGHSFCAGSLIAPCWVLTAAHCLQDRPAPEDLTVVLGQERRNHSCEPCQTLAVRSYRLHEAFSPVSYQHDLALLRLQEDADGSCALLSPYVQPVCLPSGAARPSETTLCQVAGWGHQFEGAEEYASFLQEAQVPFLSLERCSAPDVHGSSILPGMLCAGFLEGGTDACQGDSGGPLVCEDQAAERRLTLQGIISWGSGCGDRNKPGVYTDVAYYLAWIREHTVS

The first assay concerns the target plasma kallikrein (PK) (Homo sapiens, UniProt P03952). Description: Determining the inhibitory constants: inhibition of PK (substrate Bzl-Pro-Phe-Arg-pNA). The assay is classed as biochemical. The following applies: Tris buffer pH 8.0, 25° C.; mean of at least three determinations. The protocol: (§1) The inhibitory effect for the individual enzymes was determined in analogy with a method which has already been described (Stürzebecher et al., J. Med. Chem. 40, 3091-3099, 1997).
(§2) After 3 min, the reaction was terminated by adding 25 μl of acetic acid (50%) and the absorption at […] was determined using a Microplate Reader (Labsystems iEMS Reader MF). The Ki values were determined, in accordance with Dixon (Biochem. J. 55, 170-171, 1953), by means of linear regression and using a computer program. The Ki values are the mean of at least three determinations.
In general, Ki refers to a measure of affinity in units of concentration, obtained from inhibition or displacement. `CC(C)(C)OCC(NS(=O)(=O)Cc1ccccc1)C(=O)NC(CCOCc1ccccc1)C(=O)NCc1ccc(C(=N)N)cc1` (centres unmarked) [Inhibitor 43] yielded a Ki of 8.2 nM.
`CC(C)(C)OC[C@@H](NS(=O)(=O)Cc1ccccc1)C(=O)N[C@@H](Cc1ccccc1)C(=O)NCc1ccc(C(=N)N)cc1` [Inhibitor 44]: the inhibitory constant (Ki) came out at 5.5 nM.
Regarding `CC(C)(C)OC[C@@H](NS(=O)(=O)Cc1ccccc1)C(=O)N[C@@H](CCc1ccccc1)C(=O)NCc1ccc(C(=N)N)cc1` [Inhibitor 45], affinity was put at a Ki of 4.5 nM.
On the same count and under the same terms, the same measure for `COC(=O)c1ccc(CS(=O)(=O)N[C@H](COC(C)(C)C)C(=O)NCC(=O)NCc2ccc(C(=N)N)cc2)cc1` [Inhibitor 47]: 1100 nM; for `C[C@H](NC(=O)[C@@H](COC(C)(C)C)NS(=O)(=O)Cc1ccc(C(=O)O)cc1)C(=O)NCc1ccc(C(=N)N)cc1` [Inhibitor 48]: 6.2 nM; for `COC(=O)c1ccc(CS(=O)(=O)N[C@H](COC(C)(C)C)C(=O)N[C@@H](C)C(=O)NCc2ccc(C(=N)N)cc2)cc1` [Inhibitor 49]: 54 nM.
`CC(C)(C)OC[C@@H](NS(=O)(=O)Cc1ccc(CN)cc1)C(=O)NCC(=O)NCc1ccc(C(=N)N)cc1` [Inhibitor 50]: the Ki is 4000 nM.
In the case of `CC(C)(C)OC[C@@H](NS(=O)(=O)Cc1ccc(C#N)cc1)C(=O)N1CCC[C@H]1C(=O)NCc1ccc(C(=N)N)cc1` [Inhibitor 51], affinity was put at a Ki of 9.4 nM.

Another assay concerns the target T1, human factor XIIa (Homo sapiens, UniProt P00748).
T1 construct: purchased Haemochrom Diagnostica GmbH, Essen, Germany
Description: Inhibitory constants for factor XIIa (substrate H-D-HHT-Gly-Arg-pNA, Chromozym XII). The class given is biochemical. The following applies: read-out: Ki F XIIa. How it is done: as §1, §2
(§3) The inhibition of factor XIa and factor XIIa was determined in an analogous manner. When determining the inhibitory constants for human factor XIa (Haemochrom Diagnostica GmbH, Essen, Germany), H-D-Lys(Z)-Pro-Arg-pNA (Chromozym PCa, Roche Diagnostics GmbH, Mannheim, Germany) was used as the substrate.
H-D-HHT-Gly-Arg-pNA (Chromozym XII, Roche Diagnostics GmbH, Mannheim, Germany) was used as the substrate for measuring the inhibitory constants of human factor XIIa (Haemochrom Diagnostica GmbH, Essen, Germany).
`CC(C)(C)OCC(NS(=O)(=O)Cc1ccccc1)C(=O)NC(CCOCc1ccccc1)C(=O)NCc1ccc(C(=N)N)cc1` (centres unmarked) [Inhibitor 43]: the Ki worked out at 80000 nM.
Turning to `CC(C)(C)OC[C@@H](NS(=O)(=O)Cc1ccccc1)C(=O)N[C@@H](Cc1ccccc1)C(=O)NCc1ccc(C(=N)N)cc1` [Inhibitor 44], the inhibition constant Ki is 4600 nM.
Regarding `CC(C)(C)OC[C@@H](NS(=O)(=O)Cc1ccccc1)C(=O)N[C@@H](CCc1ccccc1)C(=O)NCc1ccc(C(=N)N)cc1` [Inhibitor 45], the Ki is 1300 nM.
Same read-out and setting: the same measure for `COC(=O)c1ccc(CS(=O)(=O)N[C@H](COC(C)(C)C)C(=O)NCC(=O)NCc2ccc(C(=N)N)cc2)cc1` [Inhibitor 47]: 4800 nM; for `C[C@H](NC(=O)[C@@H](COC(C)(C)C)NS(=O)(=O)Cc1ccc(C(=O)O)cc1)C(=O)NCc1ccc(C(=N)N)cc1` [Inhibitor 48]: 9500 nM; for `COC(=O)c1ccc(CS(=O)(=O)N[C@H](COC(C)(C)C)C(=O)N[C@@H](C)C(=O)NCc2ccc(C(=N)N)cc2)cc1` [Inhibitor 49]: 4700 nM.
Still for that read-out and setting: the same measure for `CC(C)(C)OC[C@@H](NS(=O)(=O)Cc1ccc(CN)cc1)C(=O)NCC(=O)NCc1ccc(C(=N)N)cc1` [Inhibitor 50]: 1800 nM; for `CC(C)(C)OC[C@@H](NS(=O)(=O)Cc1ccc(C#N)cc1)C(=O)N1CCC[C@H]1C(=O)NCc1ccc(C(=N)N)cc1` [Inhibitor 51]: 1600 nM.

The target in the next assay is T2, human factor XIa (Homo sapiens, UniProt P03951).
T2 construct: purchased Haemochrom Diagnostica GmbH, Essen, Germany
T2 sequence (P03951 388-625 limits assumed): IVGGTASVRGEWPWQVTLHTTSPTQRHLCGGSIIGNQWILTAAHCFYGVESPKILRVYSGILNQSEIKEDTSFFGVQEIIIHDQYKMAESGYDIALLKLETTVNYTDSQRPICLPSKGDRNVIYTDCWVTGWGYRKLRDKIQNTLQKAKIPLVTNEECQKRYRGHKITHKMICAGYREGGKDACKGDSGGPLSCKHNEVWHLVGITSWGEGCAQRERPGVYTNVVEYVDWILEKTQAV
T2 sequence (P03951 19-387 partner limits assumed): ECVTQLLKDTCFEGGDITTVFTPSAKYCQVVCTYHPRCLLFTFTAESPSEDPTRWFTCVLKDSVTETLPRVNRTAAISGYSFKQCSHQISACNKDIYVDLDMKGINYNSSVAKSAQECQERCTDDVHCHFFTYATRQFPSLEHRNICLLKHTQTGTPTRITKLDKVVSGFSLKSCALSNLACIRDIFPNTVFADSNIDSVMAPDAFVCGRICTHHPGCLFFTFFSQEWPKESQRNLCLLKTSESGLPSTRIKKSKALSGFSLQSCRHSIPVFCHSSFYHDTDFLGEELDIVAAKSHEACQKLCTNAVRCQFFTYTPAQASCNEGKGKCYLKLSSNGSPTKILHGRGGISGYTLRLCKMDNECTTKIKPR
As to the kind of experiment: Inhibitory constants for factor XIa (substrate H-D-Lys(Z)-Pro-Arg-pNA, Chromozym PCa). The following applies: read-out: Ki F XIa. The class given is biochemical. The protocol: as §1, §2, §3
In the case of `CC(C)(C)OCC(NS(=O)(=O)Cc1ccccc1)C(=O)NC(CCOCc1ccccc1)C(=O)NCc1ccc(C(=N)N)cc1` (centres unmarked) [Inhibitor 43], the Ki came out at 610 nM.
Still for that read-out and setting: the value for `CC(C)(C)OC[C@@H](NS(=O)(=O)Cc1ccccc1)C(=O)N[C@@H](Cc1ccccc1)C(=O)NCc1ccc(C(=N)N)cc1` [Inhibitor 44] was 260 nM; that for `CC(C)(C)OC[C@@H](NS(=O)(=O)Cc1ccccc1)C(=O)N[C@@H](CCc1ccccc1)C(=O)NCc1ccc(C(=N)N)cc1` [Inhibitor 45] was 83 nM; that for `COC(=O)c1ccc(CS(=O)(=O)N[C@H](COC(C)(C)C)C(=O)NCC(=O)NCc2ccc(C(=N)N)cc2)cc1` [Inhibitor 47] was 1600 nM.
Take `C[C@H](NC(=O)[C@@H](COC(C)(C)C)NS(=O)(=O)Cc1ccc(C(=O)O)cc1)C(=O)NCc1ccc(C(=N)N)cc1` [Inhibitor 48]: the Ki came to 6.9 nM.
On to `COC(=O)c1ccc(CS(=O)(=O)N[C@H](COC(C)(C)C)C(=O)N[C@@H](C)C(=O)NCc2ccc(C(=N)N)cc2)cc1` [Inhibitor 49], for which the inhibitory constant (Ki) came out at 79 nM.
The same measure, in the same setting: the value for `CC(C)(C)OC[C@@H](NS(=O)(=O)Cc1ccc(CN)cc1)C(=O)NCC(=O)NCc1ccc(C(=N)N)cc1` [Inhibitor 50] was 2900 nM; that for `CC(C)(C)OC[C@@H](NS(=O)(=O)Cc1ccc(C#N)cc1)C(=O)N1CCC[C@H]1C(=O)NCc1ccc(C(=N)N)cc1` [Inhibitor 51] was 9.1 nM.

A further assay addresses thrombin (UniProt P00735). Description: Inhibitory constants for thrombin. The class given is biochemical. The following applies: read-out: Ki Thrombin.
As to `CC(C)(C)OCC(NS(=O)(=O)Cc1ccccc1)C(=O)NC(CCOCc1ccccc1)C(=O)NCc1ccc(C(=N)N)cc1` (centres unmarked) [Inhibitor 43], the inhibitory constant (Ki) was found to be 500 nM.
For the compound `CC(C)(C)OC[C@@H](NS(=O)(=O)Cc1ccccc1)C(=O)N[C@@H](Cc1ccccc1)C(=O)NCc1ccc(C(=N)N)cc1` [Inhibitor 44], the Ki is 160 nM.
Still for that read-out and setting: the same measure for `CC(C)(C)OC[C@@H](NS(=O)(=O)Cc1ccccc1)C(=O)N[C@@H](CCc1ccccc1)C(=O)NCc1ccc(C(=N)N)cc1` [Inhibitor 45]: 48 nM.
Consider `COC(=O)c1ccc(CS(=O)(=O)N[C@H](COC(C)(C)C)C(=O)NCC(=O)NCc2ccc(C(=N)N)cc2)cc1` [Inhibitor 47], for which the inhibitory constant (Ki) came to 360 nM.
In the case of `C[C@H](NC(=O)[C@@H](COC(C)(C)C)NS(=O)(=O)Cc1ccc(C(=O)O)cc1)C(=O)NCc1ccc(C(=N)N)cc1` [Inhibitor 48], the inhibition constant Ki came out at 44 nM.
For `COC(=O)c1ccc(CS(=O)(=O)N[C@H](COC(C)(C)C)C(=O)N[C@@H](C)C(=O)NCc2ccc(C(=N)N)cc2)cc1` [Inhibitor 49], the Ki amounted to 4.3 nM.
With `CC(C)(C)OC[C@@H](NS(=O)(=O)Cc1ccc(CN)cc1)C(=O)NCC(=O)NCc1ccc(C(=N)N)cc1` [Inhibitor 50], the Ki stood at 120 nM.
As to `CC(C)(C)OC[C@@H](NS(=O)(=O)Cc1ccc(C#N)cc1)C(=O)N1CCC[C@H]1C(=O)NCc1ccc(C(=N)N)cc1` [Inhibitor 51], the Ki came out at 0.064 nM.

The record behind these values is patent US9365613B2, “Acylated 4-amidino- and -4-guanidinobenzylamines for inhibition of plasma kallikrein” (The Medicines Company (Leipzig) GmbH, priority 2003, dated 2016).
